Laboratory results published in EPA's ToxRefDB 2.

Legend:
[1] = test system: rat; settings: Sub-acute repeat dose toxicity; sprague dawley; Oral; Gavage/Intubation; dose end: 1 month; group: systemic; systemic / clinical chemistry / cholesterol / cholesterol + systemic / clinical chemistry / globulins / globulins + systemic / hematology / …
[2] = test system: rabbit; settings: Prenatal developmental toxicity study, new zealand white, Oral, Gavage/Intubation, dose end: 19 GD
[3] = test system: rat; settings: Prenatal developmental toxicity study; sprague dawley; Oral; Gavage/Intubation; dose end: 17 GD; group: maternal; reproductive / reproductive performance / estrous cycle / corpora lutea + reproductive / reproductive performance / postimplantation loss / …
[4] = test system: rabbit; settings: Prenatal developmental toxicity study, new zealand white, Oral, Gavage/Intubation, dose end: 19 GD; remark: listed apart in the source
[5] = test system: rat; settings: Developmental neurotoxicity study; fischer; Injection; Intraperitoneal; dose end: 30 PND; group: cannot be grouped; systemic / in life observation / body weight / offspring (pup) weight
[6] = test system: mouse; settings: Subchronic oral toxicity in rodents, other, Feed, dose end: 90 day, group: systemic, systemic / in life observation / clinical signs / aggressive behavior + systemic / in life observation / clinical signs / irritability + …
[7] = test system: rat; settings: Prenatal developmental toxicity study, sprague dawley, Oral, Gavage/Intubation, dose end: 15 GD
[8] = test system: dog; settings: Subchronic oral toxicity in nonrodent, beagle, Capsule, dose end: 13 week, group: systemic
[9] = test system: rat; settings: Combined chronic toxicity/carcinogenicity, sprague dawley, Oral, Feed, dose end: 2 year, group: systemic
[10] = test system: mouse; settings: Carcinogenicity, cd1, Oral, Feed, dose end: 78 week, group: systemic
[11] = test system: dog; settings: Chronic toxicity; beagle; Oral; Capsule; dose end: 52 week; group: systemic; systemic / in life observation / clinical signs / excitation + systemic / in life observation / clinical signs / hypersensitivity + systemic…
[12] = test system: rat; settings: Subchronic oral toxicity in rodents, sprague dawley, Feed, dose end: 13 week, group: systemic
[13] = test system: mouse; settings: Subchronic oral toxicity in rodents, cd1, Feed, dose end: 13 week, group: systemic
[14] = group: developmental, developmental / developmental malformation / bone / domed head + developmental / developmental malformation / brain / hydrocephaly + …
[15] = group: maternal, systemic / in life observation / clinical signs / discharge on cageboard + systemic / in life observation / food consumption / food …
[16] = group: developmental, developmental / developmental malformation / bone / domed head + developmental / developmental malformation / bone / fused + developmental…
[17] = group: maternal, systemic / in life observation / body weight / body weight gain + systemic / in life observation / clinical signs / defecation + systemic / …
[18] = group: developmental, developmental / developmental malformation / bone / incomplete ossification + systemic / in life observation / body weight / fetal weight
[19] = group: maternal, systemic / in life observation / body weight / body weight gain + systemic / in life observation / food consumption / food consumption + …
[20] = systemic / in life observation / body weight / body weight gain + systemic / in life observation / clinical signs / anorexia
[21] = systemic / in life observation / body weight / body weight gain + systemic / in life observation / clinical signs / anorexia + systemic / in…
[22] = systemic / clinical chemistry / albumin / albumin + systemic / clinical chemistry / albumin-globulin ratio / albumin-globulin ratio + …
[23] = systemic / organ weight / brain / relative to body weight + systemic / organ weight / spleen / absolute + systemic / organ weight / thyroid …
[24] = systemic / organ weight / liver / relative to body weight + systemic / pathology microscopic / liver / vacuolization + systemic / in life …
[25] = systemic / clinical chemistry / urea nitrogen / urea nitrogen + systemic / clinical chemistry / aspartate aminotransferase (ast/sgot) / …
[26] = systemic / pathology microscopic / liver / hypertrophy + systemic / pathology microscopic / liver / vacuolization cytoplasmic

**Q.** Which LEL [1] does the source give for CC(=O)NC1(c2cccc(F)c2)CCN(CC[C@@]2(c3ccc(Cl)c(Cl)c3)CN(c3ccccc3)C(=O)CO2)CC1.O=C(O)CCC(=O)O here?
**A.** Its LEL is 200 mg/kg/day.

**Q.** What about the LOAEL [1] of the same compound?
**A.** The LOAEL was 200 mg/kg/day.

**Q.** And the NEL [1]?
**A.** Its NEL is 30 mg/kg/day.

**Q.** What about the NOAEL [1] of the same compound?
**A.** The NOAEL was 30 mg/kg/day.

**Q.** And the LEL [2, 14]?
**A.** Its LEL is 1000 mg/kg/day.

**Q.** And the LOAEL [2, 14]?
**A.** The LOAEL was 1000 mg/kg/day.

**Q.** What about the NEL [2, 14] of the same compound?
**A.** Its NEL is 500 mg/kg/day.

**Q.** What about the NOAEL [2, 14] of the same compound?
**A.** The NOAEL was 500 mg/kg/day.

**Q.** And the LEL [2, 15]?
**A.** The LEL was 1000 mg/kg/day.

**Q.** What about the LOAEL [2, 15] of the same compound?
**A.** Its LOAEL is 1000 mg/kg/day.

**Q.** And the NEL [2, 15]?
**A.** The NEL was 500 mg/kg/day.

**Q.** And the NOAEL [2, 15]?
**A.** Its NOAEL is 500 mg/kg/day.

**Q.** And the LEL [3]?
**A.** The LEL was 500 mg/kg/day.

**Q.** What about the LOAEL [3] of the same compound?
**A.** The LOAEL was greater than 1500 mg/kg/day.

**Q.** What about the NEL [3] of the same compound?
**A.** The NEL was less than 500 mg/kg/day.

**Q.** What about the NOAEL [3] of the same compound?
**A.** Its NOAEL is no less than 1500 mg/kg/day.

**Q.** What about the LEL [4, 16] of the same compound?
**A.** The LEL was 1000 mg/kg/day.

**Q.** What about the LOAEL [4, 16] of the same compound?
**A.** Its LOAEL is 1000 mg/kg/day.

**Q.** What about the NEL [4, 16] of the same compound?
**A.** The NEL was 200 mg/kg/day.

**Q.** And the NOAEL [4, 16]?
**A.** Its NOAEL is 200 mg/kg/day.

**Q.** And the LEL [4, 17]?
**A.** Its LEL is 1000 mg/kg/day.

**Q.** What about the LOAEL [4, 17] of the same compound?
**A.** The LOAEL was 1000 mg/kg/day.

**Q.** And the NEL [4, 17]?
**A.** Its NEL is 200 mg/kg/day.

**Q.** What about the NOAEL [4, 17] of the same compound?
**A.** Its NOAEL is 200 mg/kg/day.

**Q.** What does the source list for CN=C1CN(O)C(c2ccccc2)=c2cc(Cl)ccc2=N1 [Chlordiazepoxide]?
**A.** LEL [5]: 1 mg/kg/day; LOAEL [5]: > 1 mg/kg/day; NEL [5]: < 1 mg/kg/day; NOAEL [5]: ≥ 1 mg/kg/day

**Q.** Which LEL [6] does the source give for N#Cc1nn(-c2c(Cl)cc(C(F)(F)F)cc2Cl)c(N)c1S(=O)C(F)(F)F (centres undefined) [Fipronil] here?
**A.** The LEL was 0.32 mg/kg/day.

**Q.** What about the LOAEL [6] of the same compound?
**A.** The LOAEL was 0.32 mg/kg/day.

**Q.** What about the NEL [6] of the same compound?
**A.** Its NEL is 0.08 mg/kg/day.

**Q.** What about the NOAEL [6] of the same compound?
**A.** Its NOAEL is 0.08 mg/kg/day.

**Q.** And the LOAEL ([7]; group: developmental, developmental / developmental malformation / bone / incomplete ossification)?
**A.** Its LOAEL is 2.5 mg/kg/day.

**Q.** What about the LEL [7, 18] of the same compound?
**A.** The LEL was 2.5 mg/kg/day.

**Q.** And the NEL [7, 18]?
**A.** Its NEL is 1 mg/kg/day.

**Q.** And the NOAEL [7, 18]?
**A.** Its NOAEL is 1 mg/kg/day.

**Q.** And the LEL [7, 19]?
**A.** Its LEL is 2.5 mg/kg/day.

**Q.** And the LOAEL [7, 19]?
**A.** The LOAEL was 2.5 mg/kg/day.

**Q.** What about the NEL [7, 19] of the same compound?
**A.** The NEL was 1 mg/kg/day.

**Q.** What about the NOAEL [7, 19] of the same compound?
**A.** The NOAEL was 1 mg/kg/day.

**Q.** And the LEL [8, 20]?
**A.** Its LEL is 2 mg/kg/day.

**Q.** What about the LOAEL [8, 20] of the same compound?
**A.** The LOAEL was 2 mg/kg/day.

**Q.** What about the NEL [8, 21] of the same compound?
**A.** Its NEL is 0.5 mg/kg/day.

**Q.** What about the NOAEL [8, 21] of the same compound?
**A.** Its NOAEL is 0.5 mg/kg/day.

**Q.** And the LOAEL [9, 22]?
**A.** Its LOAEL is 0.059 mg/kg/day.

**Q.** What about the NOAEL [9, 22] of the same compound?
**A.** Its NOAEL is 0.019 mg/kg/day.

**Q.** And the LEL [9, 23]?
**A.** The LEL was 0.019 mg/kg/day.

**Q.** What about the NEL [9, 23] of the same compound?
**A.** Its NEL is less than 0.019 mg/kg/day.

**Q.** What about the LEL ([10]; systemic / organ weight / liver / relative to body weight) of the same compound?
**A.** Its LEL is 0.055 mg/kg/day.

**Q.** And the LOAEL [10, 24]?
**A.** Its LOAEL is 1.18 mg/kg/day.

**Q.** What about the NEL [10, 24] of the same compound?
**A.** The NEL was 0.011 mg/kg/day.

**Q.** And the NOAEL [10, 24]?
**A.** Its NOAEL is 0.055 mg/kg/day.

**Q.** And the LEL [11]?
**A.** Its LEL is 2 mg/kg/day.

**Q.** What about the LOAEL [11] of the same compound?
**A.** Its LOAEL is 2 mg/kg/day.

**Q.** And the NEL [11]?
**A.** The NEL was 0.2 mg/kg/day.

**Q.** And the NOAEL [11]?
**A.** The NOAEL was 0.2 mg/kg/day.

**Q.** What about the LOAEL ([12]; systemic / clinical chemistry / protein / protein) of the same compound?
**A.** Its LOAEL is 1.93 mg/kg/day.

**Q.** What about the NOAEL ([12]; systemic / clinical chemistry / protein / protein + systemic / clinical chemistry / albumin-globulin ratio / albumin-globulin ratio + …) of the same compound?
**A.** The NOAEL was 0.33 mg/kg/day.

**Q.** What about the LEL [12, 25] of the same compound?
**A.** The LEL was 0.07 mg/kg/day.

**Q.** And the NEL [12, 25]?
**A.** Its NEL is less than 0.07 mg/kg/day.

**Q.** What about the LOAEL ([13]; systemic / in life observation / body weight / body weight gain) of the same compound?
**A.** The LOAEL was 3.2 mg/kg/day.

**Q.** What about the NOAEL ([13]; systemic / in life observation / body weight / body weight gain + systemic / organ weight / liver / absolute + systemic / organ weight / …) of the same compound?
**A.** Its NOAEL is 1.27 mg/kg/day.

**Q.** What about the LEL [13, 26] of the same compound?
**A.** The LEL was 0.13 mg/kg/day.

**Q.** What about the NEL [13, 26] of the same compound?
**A.** The NEL was less than 0.13 mg/kg/day.
